Laboratory results reported in patent US6605704B1, “Plant-origin regulator protein and nucleic acid encoding the same” (Japan Tobacco Inc., priority 1999, dated 2003).
Read-outs that look alike come from different tables or passages of the source.

How the values were obtained:
mRNA of ZmCip1 [1] = experiment: Northern analysis after t-zeatin, benzyladenine or abscisic acid treatment of cut leaves; type: cell-based, maize (Zea mays L.cv. Golden Cross Bantam T51); conditions: 100 or 180 minutes, nitrogen-deficient leaves
Method: (§1) The cut leaves of the maize cultivated under the low-nitrogen condition as mentioned above was treated with 5 μM t-zeatin or with water for 0 minute, 30 minutes, 45 minutes, 60 minutes or 90 minutes, and the ⅓ portions from the distal ends of the leaves was collected. After freezing the collected leaves with liquid nitrogen, RNAs were extracted by the guanidine thiocyanate/cesium chloride method. Ten micrograms of the obtained RNAs were fractionated by formaldehyde gel (1%) electrophoresis and the resultant was transferred to a nylon membrane. Hybridization was performed using ZmCip1 cDNA or maize ubiquitin gene as a probe.
(10) The cut leaves of the maize cultivated under the low-nitrogen condition as mentioned above were treated with 5 μM t-zeatin, 5 μM benzyladenine, 10 μM±abscisic acid or with water for 100 minutes or 180 minutes, and Northern analysis was performed as in (4).

mRNA of ZmCip1 [2] = experiment: Northern analysis of induction of expression of CIP1 by ammonium ion, cut leaves; type: cell-based, maize (Zea mays L.cv. Golden Cross Bantam T51); conditions: 6 mM NH4+, nitrogen-deficient maize green leaves
Method: (§2) The cut leaves of the maize cultivated under the low-nitrogen condition as mentioned above were treated with 16 mM NaNO3 solution or with 0.08 mM NaNO3 solution for 0 hour, 2 hours, 5 hours, […] or 24 hours and Northern analysis was carried out in the same manner as in (4) except that the weight of the RNAs applied to each gel was 20 μg, respectively, and that a non-coding region of ZmCip1 was used as a probe.
The cut leaves of the maize cultivated under the low-nitrogen condition as mentioned above were treated with 6 mM NH4^+ solution or with 0.08 mM NaNO3 solution for 0 to 7 hours and Northern analysis was carried out in the same manner as in (5) except that the weight of the RNAs applied to each gel was 15 μg.

mRNA of ZmCip 1 = experiment: Northern analysis of induction of expression of CIP1 by cytokinin treatment and cycloheximide treatment; type: cell-based, maize (Zea mays L.cv. Golden Cross Bantam T51); conditions: as printed under experiment (8), nitrogen-deficient maize green leaves
Method: as §2
The cut leaves of the maize cultivated under the low-nitrogen condition as mentioned above were treated (i) with water for 60 minutes and then with water for 90 minutes, (ii) with water for 60 minutes and then with 5 μM t-zeatin for 90 minutes, (iii) with 20 μg/ml of cycloheximide for 60 minutes and then with 20 μg/ml cycloheximide and 5 μM t-zeatin for 90 minutes, or (iv) with 20 μg/ml of cycloheximide for 60 minutes and then with 20 μg/ml of cycloheximide for 90 minutes, and Northern analysis was performed in the same manner as in (5) except that the amount of the RNAs applied to each gel was 30 μg.

mRNA of ZmCip1 [3] = conditions: 16 mM NaNO3, 5 hours after treatment
Method: as §2
The maize cultivated under the low-nitrogen condition as mentioned above was treated with 16 mM NaNO3 solution or with 0.08 mM NaNO3 solution for 5 hours, and its leaf blades, leaf sheaths and roots were separately collected, followed by Northern analysis in the same manner as in (5) except that the amount of the RNAs from leaf sheaths or roots applied to each gel was 30 μg.

mRNA of ZmCip1 [4] = test system: mRNA of ZmCip1
Method: as §1, §2

mRNA of ZmCip1 [5] = conditions: 5 μM, 100 minutes, nitrogen-deficient leaves
Method: as §2
The cut leaves of the maize cultivated under the low-nitrogen condition as mentioned above were treated with 5 μM t-zeatin, 5 μM zeatin-O-glucoside or with water for 100 minutes, and Northern analysis was performed in the same manner as in (5), except that the amount of the RNAs applied to each gel was 15 μg.

mRNA of ZmCip1 [6] = conditions: 5 μM, nitrogen-deficient maize green leaves
Method: as §1

mRNA of ZmCip1 [7] = conditions: 10^−11 to 10^−7 M tested, 100 or 180 minutes, cut leaves
Method: as §2

Method for ZmCip1 gene: (3) Assay of Induction of Expression of CIP 1 by Cytokinin Treatment (Run-Off Transcription Assay) Run-off transcription assay for expression of ZmCip1 gene was carried out. Nuclei were isolated from maize mesophyll cells and its RNA synthesis activity was measured according to a reported method (I. Suzuki, C. Cretin, T. Omata, T. Sugiyama, Plant Physiol.105:1223,1994). The RNAs synthesized by the isolated nuclei were fractionated by formaldehyde gel electrophoresis and the fractionated RNAs were transferred to a nylon membrane, followed by hybridization with ^32P-labeled ZmCip 1 cDNA or C4Ppc1 cDNA. The intensity of the detected signal was measured by Bio Imaging Analyzer (BAS2000, Fuji Film).

## CC1=CC(=O)CC(C)(C)[C@@]1(O)/C=C/C(C)=C\C(=O)O [abscisic acid]
mRNA of ZmCip1 [1]; 10 μM
  induction of expression of ZmCip1 mRNA: slightly induced

## N [ammonium ion]
mRNA of ZmCip1 [2]
  time after treatment at which ZmCip1 mRNA was confirmed: 5 h
  time after treatment at which the gene was strongly expressed: 6 to 7 h
mRNA of ZmCip 1
  time after treatment at which ZmCip1 mRNA was confirmed: 5 h
  time after treatment at which the gene was strongly expressed: 6 to 7 h

## c1ccc(CNc2ncnc3nc[nH]c23)cc1 [benzyladenine]
mRNA of ZmCip1 [1]; 5 μM
  induction of expression of ZmCip1 mRNA: induced

## O=[N+]([O-])[O-].[Na+] [nitrate ion, NaNO3]
mRNA of ZmCip1 [3]; nitrogen-deficient maize green leaves
  accumulation of ZmCip1 mRNA in green leaves: confirmed
mRNA of ZmCip1 [3]; roots
  expression of ZmCip1 mRNA in roots: scarcely observed
mRNA of ZmCip1 [4]; 16 mM NaNO3, 24 hours
  expression of the gene 24 hours after the treatment: scarcely observed
mRNA of ZmCip1 [4]; 16 mM NaNO3, nitrogen-deficient green leaves
  time after treatment at which accumulation of ZmCip1 mRNA was confirmed: 5 to 6 h

## C/C(=C\CNc1ncnc2[nH]cnc12)CO [t-zeatin]
mRNA of ZmCip1 [5]
  induction of expression of ZmCip1 mRNA: induced
ZmCip1 gene; cut leaves of maize cultivated under low-nitrogen condition, nuclei from mesophyll cells
  treatment time that causes transcription of ZmCip1 mRNA: 20 min
ZmCip1 gene; same leaves treated with t-zeatin
  timing of ZmCip1 transcription compared with transcription of C4Ppc1 mRNA: much earlier stage
mRNA of ZmCip1 [6]
  time after treatment at which accumulation of ZmCip1 mRNA was confirmed: 30 min
  time after treatment at which the gene was strongly expressed: 45 to 90 min
mRNA of ZmCip1 [7]
  low level of t-zeatin at which expression of ZmCip1 mRNA was induced: 10^−9 M
mRNA of ZmCip1 [1]; 5 μM
  induction of expression of ZmCip1 mRNA: induced

## zeatin-O-glucoside
mRNA of ZmCip1 [5]
  induction of expression of ZmCip1 mRNA: induced
